For 50 compounds, IC50 results are on record in patent US8778935B2 (Centro Nacional de Investigaciones Oncologicas (CNIO), priority 2009, dated 2014).

T1 sequence (P42336 whole entry): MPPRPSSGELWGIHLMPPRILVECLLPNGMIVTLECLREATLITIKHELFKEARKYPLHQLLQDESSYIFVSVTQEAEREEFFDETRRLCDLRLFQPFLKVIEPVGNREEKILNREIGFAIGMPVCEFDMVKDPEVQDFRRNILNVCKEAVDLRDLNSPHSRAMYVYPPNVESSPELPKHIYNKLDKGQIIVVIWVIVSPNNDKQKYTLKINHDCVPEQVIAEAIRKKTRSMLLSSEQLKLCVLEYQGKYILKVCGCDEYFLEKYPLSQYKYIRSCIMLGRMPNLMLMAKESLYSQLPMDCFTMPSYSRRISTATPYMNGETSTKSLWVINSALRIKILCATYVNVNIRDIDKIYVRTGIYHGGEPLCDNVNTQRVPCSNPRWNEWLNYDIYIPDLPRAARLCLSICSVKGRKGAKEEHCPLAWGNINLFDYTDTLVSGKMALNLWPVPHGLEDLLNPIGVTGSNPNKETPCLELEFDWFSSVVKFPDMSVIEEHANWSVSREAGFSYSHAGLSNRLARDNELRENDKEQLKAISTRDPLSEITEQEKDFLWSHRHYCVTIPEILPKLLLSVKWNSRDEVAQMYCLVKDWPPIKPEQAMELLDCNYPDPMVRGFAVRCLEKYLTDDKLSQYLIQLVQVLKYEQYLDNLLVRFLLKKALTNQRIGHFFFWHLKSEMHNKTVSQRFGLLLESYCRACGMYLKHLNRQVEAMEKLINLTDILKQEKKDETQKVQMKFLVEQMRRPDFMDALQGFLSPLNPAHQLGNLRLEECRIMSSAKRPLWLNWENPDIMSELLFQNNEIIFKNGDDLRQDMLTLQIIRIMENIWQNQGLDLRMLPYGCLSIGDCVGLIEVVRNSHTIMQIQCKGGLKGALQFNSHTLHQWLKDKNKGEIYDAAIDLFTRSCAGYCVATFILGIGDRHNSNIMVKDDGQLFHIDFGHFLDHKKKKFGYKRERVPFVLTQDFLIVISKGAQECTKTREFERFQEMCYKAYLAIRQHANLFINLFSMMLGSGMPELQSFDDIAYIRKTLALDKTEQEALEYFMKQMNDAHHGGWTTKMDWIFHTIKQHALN
T1 sequence (P27986 whole entry partner): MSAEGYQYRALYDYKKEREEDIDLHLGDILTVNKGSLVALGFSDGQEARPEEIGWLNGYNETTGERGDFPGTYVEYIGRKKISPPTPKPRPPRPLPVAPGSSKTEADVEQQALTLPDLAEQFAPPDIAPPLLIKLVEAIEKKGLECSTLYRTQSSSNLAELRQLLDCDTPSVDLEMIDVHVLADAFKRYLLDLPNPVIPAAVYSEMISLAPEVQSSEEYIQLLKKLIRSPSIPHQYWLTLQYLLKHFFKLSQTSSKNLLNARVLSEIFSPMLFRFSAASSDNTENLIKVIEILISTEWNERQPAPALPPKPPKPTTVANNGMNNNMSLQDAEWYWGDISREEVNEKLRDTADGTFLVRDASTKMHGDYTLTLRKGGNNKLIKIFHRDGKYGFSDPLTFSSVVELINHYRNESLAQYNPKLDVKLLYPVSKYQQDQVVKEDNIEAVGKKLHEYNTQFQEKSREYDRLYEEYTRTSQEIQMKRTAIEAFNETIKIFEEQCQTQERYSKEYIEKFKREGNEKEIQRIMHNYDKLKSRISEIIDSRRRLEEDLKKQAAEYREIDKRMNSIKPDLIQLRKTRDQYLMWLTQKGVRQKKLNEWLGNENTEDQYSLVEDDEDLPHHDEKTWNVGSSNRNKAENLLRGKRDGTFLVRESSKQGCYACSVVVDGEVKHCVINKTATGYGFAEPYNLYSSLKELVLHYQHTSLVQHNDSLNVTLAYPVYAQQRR

The first assay concerns the target T1, PI3K (p110α/p85α) (Homo sapiens, UniProt P42336).
T1 construct: purchased Carna Biosciences 07CBS-0402A
Description: PI3K Activity Assay (ADP Hunter Plus). Type of assay: biochemical. The note with it: PI3Kα activity, quantitative results; read-out: PI3Kα IC50. The method, then: The kinase activity was measured by using the commercial ADP Hunter™ Plus assay available from DiscoveRx (#33-016), which is a homogeneous assay to measure the accumulation of ADP, a universal product of kinase activity. […] Reaction was carried out for 1 hour at 25° C. Reagent A and B were sequentially added to the wells and plates were incubated for 30 min at 37° C. […] Values were normalized against the control activity included for each enzyme (i.e., 100% PI3 kinase activity, without compound). These values were plot against the inhibitor concentration and were fit to a sigmoid dose-response curve by using the Graphad software.
As a reminder, the IC50 is the concentration at which inhibition is half-maximal. For the compound `CCOC(=O)N1CCC(NC(=O)c2cn3cc(-c4cccc5[nH]ncc45)nc(N4CCOCC4)c3n2)CC1` [2-182], the 50% inhibitory concentration (IC50) is 245 nM.
Same read-out and setting: for `CC(=O)O[C@H](C)C(=O)N1CCN(Cc2cn3cc(-c4cnc(N)nc4)nc(N4CCOCC4)c3n2)CC1` [2-231] the value was 85 nM; for `COC(=O)CC1COCCN1c1nc(-c2cnc(N)nc2)cn2cc(C)nc12` (stereo not drawn) [2-224], 25400 nM.
For the compound `Nc1ncc(-c2cn3cc(CN4CCNCC4)nc3c(N3CCOCC3)n2)cn1` [2-226], the IC50 worked out at 77 nM.
Same read-out and setting: the same measure for `Cc1cn2cc(-c3cnc(N)nc3)nc(N3CCOCC3)c2n1` [2-181]: 110 nM.
On the same count and under the same terms, the same measure for `CC(C)(c1cn2cc(-c3cnc(N)nc3)nc(N3CCOCC3)c2n1)N1CCN(S(C)(=O)=O)CC1` [2-242]: 16 nM.
On the same count and under the same terms, the same measure for `CS(=O)(=O)N1CCN(Cc2cn3cc(-c4ccc(C#N)nc4)nc(N4CCOCC4)c3n2)CC1` [2-201]: 3300 nM.
For `Cc1nc(N)ncc1-c1cn2cc(CN3CCN(S(C)(=O)=O)CC3)nc2c(N2CCOCC2)n1` [2-200], the 50% inhibitory concentration (IC50) amounted to 32 nM.
With `C[C@@H]1CN(C(=O)OC(C)(C)C)C[C@H](C)N1Cc1cn2cc(-c3cnc(N)nc3)nc(N3CCOCC3)c2n1` [2-218], the IC50 is 28 nM.
In the case of `CS(=O)(=O)N1CCN(Cc2cn3c(Cl)c(-c4ccc(C#N)nc4)nc(N4CCOCC4)c3n2)CC1` [2-206], the IC50 amounted to 3700 nM.
For `CN(C)CC(=O)N1CCN(Cc2cn3cc(-c4cnc(N)nc4)nc(N4CCOCC4)c3n2)CC1` [2-230], the concentration for half-maximal inhibition (IC50) turned out to be 34 nM.

Still in this assay, the particulars now being: quantitative results of Table 4; read-out: PI3Kα IC50.
Regarding `CN(C)CCNC(=O)c1cn2cc(-c3cccnc3)nc(N3CCOCC3)c2n1` [2-147], the IC50 came out at 832 nM.
For the compound `Cc1ccc(-c2cn3cc(CN4CCN(S(C)(=O)=O)CC4)nc3c(N3CCOCC3)n2)cn1` [2-126], the IC50 was 776 nM.
Same read-out and setting: for `CC(=O)NCCNC(=O)c1cn2cc(-c3cccc4[nH]ncc34)nc(N3CCOCC3)c2n1` [2-157] the value was 776 nM.
Same read-out and setting: the same measure for `c1cc(-c2cn3cc(CN4CCC5(CCNCC5)C4)nc3c(N3CCOCC3)n2)c2cn[nH]c2c1` [2-118]: 1500 nM; for `CCOC(=O)c1cn2cc(-c3cnc(N)nc3)nc(N3CCOCC3)c2n1` [2-138]: 12 nM.
Regarding `NC(=O)c1cn2cc(-c3cccc4[nH]cc(Cl)c34)nc(N3CCOCC3)c2n1` [2-103], the IC50 stood at 34000 nM.
On the same count and under the same terms, for `CS(=O)(=O)N1CCC2(CC1)CN(Cc1cn3cc(-c4cccc5[nH]ncc45)nc(N4CCOCC4)c3n1)C2` [2-150] the value was 2800 nM.
For `NC(=O)c1cn2cc(-c3c(F)ccc4[nH]cc(Cl)c34)nc(N3CCOCC3)c2n1` [2-105], the half-maximal inhibitory concentration (IC50) stood at 123000 nM.
With `CN(C)CCNC(=O)c1cn2cc(-c3cccc4[nH]ncc34)nc(N3CCOCC3)c2n1` [2-141], the 50% inhibitory concentration (IC50) was 65 nM.
With `Cc1cn2cc(-c3cccc4[nH]ncc34)nc(-c3ccncc3)c2n1` [2-168], the IC50 came to 26000 nM.
Same read-out and setting: the same measure for `NC(=O)c1cn2c(Cl)c(-c3c(F)ccc4[nH]cc(Cl)c34)nc(N3CCOCC3)c2n1` [2-106]: 28000 nM; for `CS(=O)(=O)N1CCC2(CCN(Cc3cn4cc(-c5cccc6[nH]ncc56)nc(N5CCOCC5)c4n3)CC2)C1` [2-134]: 5200 nM; for `NC(=O)c1cn2c(Cl)c(-c3cccc4[nH]cc(Cl)c34)nc(N3CCOCC3)c2n1` [2-104]: 93000 nM.
Turning to `c1cc(-c2cn3cc(CN4CC5CNCC5C4)nc3c(N3CCOCC3)n2)c2cn[nH]c2c1` (stereo not drawn) [2-117], the half-maximal inhibitory concentration (IC50) came out at 851 nM.

The assay is the same for the next values; noted with them: quantitative results; read-out: PI3Kα IC50.
Take `COc1cncc(-c2cn3cc(C)nc3c(N3CCOCC3)n2)c1` [2-27, 6-(5-methoxypyridin-3-yl)-2-methyl-8-morpholinoimidazo[1,2-a]pyrazine]: the IC50 is 3900 nM.
The same measure, in the same setting: for `N#Cc1cn2cc(-c3cccc4[nH]ncc34)nc(N3CCOCC3)c2n1` [2-22, 6-(1H-indazol-4-yl)-8-morpholinoimidazo[1,2-a]pyrazine-2-carbonitrile] the value was 618 nM; for `Cc1cn2cc(-c3cncc(O)c3)nc(N3CCOCC3)c2n1` [2-30, 5-(2-methyl-8-morpholinoimidazo[1,2-a]pyrazin-6-yl)pyridin-3-ol], 235 nM; for `CNC(=O)Nc1ccc(-c2cn3cc(C)nc3c(N3CCOCC3)n2)cc1` [2-29, 1-methyl-3-(4-(2-methyl-8-morpholinoimidazo[1,2-a]pyrazin-6-yl)phenyl)urea], 3000 nM.
Still for that read-out and setting: for `FC(F)(F)c1cn2cc(-c3cccc4[nH]ncc34)nc(N3CCOCC3)c2n1` [2-20, 2-(trifluoromethyl)-6-(1H-indazol-4-yl)-8-morpholinoimidazo[1,2-a]pyrazine] the value was 1800 nM; for `Cc1cn2cc(-c3cccnc3)nc(N3CCOCC3)c2n1` [2-26, 2-methyl-8-morpholino-6-(pyridin-3-yl)imidazo[1,2-a]pyrazine], 10000 nM; for `O=C(O)c1cn2cc(-c3cccc(O)c3)nc(N3CCOCC3)c2n1` [2-02, 6-(3-hydroxyphenyl)-8-morpholinoimidazo[1,2-a]pyrazine-2-carboxylic acid], 19000 nM.
Take `Cc1cn2cc(-c3cccc4[nH]ncc34)nc(N3CCOCC3)c2n1` [2-24, 6-(1H-indazol-4-yl)-2-methyl-8-morpholinoimidazo[1,2-a]pyrazine]: the half-inhibitory concentration (IC50) is 2600 nM.
Regarding `Cc1cn2c(Cl)c(-c3cccc4[nH]ncc34)nc(N3CCOCC3)c2n1` [2-54, 5-chloro-6-(1H-indazol-4-yl)-2-methyl-8-morpholinoimidazo[1,2-a]pyrazine], the IC50 worked out at 266 nM.
`Cc1nc2c(N3CCOCC3)nc(-c3cccc4[nH]ncc34)cn2c1C1CCNCC1` [2-57, 6-(1H-indazol-4-yl)-2-methyl-8-morpholino-3-(piperidin-4-yl)imidazo[1,2-a]-pyrazine]: the IC50 was 144 nM.
The same measure, in the same setting: for `CN1CCN(C(=O)c2cn3cc(-c4cccc5[nH]ncc45)nc(N4CCOCC4)c3n2)CC1` [2-15, (6-(1H-indazol-4-yl)-8-morpholinoimidazo[1,2-a]pyrazin-2-yl)(4-methylpiperazin-1-yl)methanone] the value was 741 nM; for `CC(=O)Nc1ccc(-c2cn3cc(CN4CCN(S(C)(=O)=O)CC4)nc3c(N3CCOCC3)n2)cn1` [2-81], 210 nM.
For `Oc1cccc(-c2cn3cc(CN4CCOCC4)nc3c(N3CCOCC3)n2)c1` [2-09, 3-(8-morpholino-2-(morpholinomethyl)imidazo[1,2-a]pyrazin-6-yl)phenol], the IC50 came to 444 nM.
Take `CS(=O)(=O)N1CCN(C(=O)c2cn3cc(-c4cccc(O)c4)nc(N4CCOCC4)c3n2)CC1` [2-11, (6-(3-hydroxyphenyl)-8-morpholinoimidazo[1,2-a]pyrazin-2-yl)(4-sulfonylmethyl-piperazin-1-yl)methanone]: the IC50 was determined as 44 nM.
Still for that read-out and setting: the same measure for `CC(C)(C)OC(=O)N1CCN(Cc2cn3cc(-c4cccc(O)c4)nc(N4CCOCC4)c3n2)CC1` [2-05, tert-butyl 4-((6-(3-hydroxyphenyl)-8-morpholinoimidazo[1,2-a]pyrazin-2-yl)methyl)-piperazine-1-carboxylate]: 476 nM; for `O=Cc1cn2cc(-c3cccc(O)c3)nc(N3CCOCC3)c2n1` [2-03, 6-(3-hydroxyphenyl)-8-morpholinoimidazo[1,2-a]pyrazine-2-carbaldehyde]: 10000 nM.
On to `Cc1cn2c(I)c(-c3cccnc3)nc(N3CCOCC3)c2n1` [2-56, 5-iodo-2-methyl-8-morpholino-6-(pyridin-3-yl)imidazo[1,2-a]pyrazine], for which the IC50 turned out to be 253 nM.
Same read-out and setting: the same measure for `CC(=O)N1CCN(Cc2cn3cc(-c4cccc(O)c4)nc(N4CCOCC4)c3n2)CC1` [2-06, 1-(4-((6-(3-hydroxyphenyl)-8-morpholinoimidazo[1,2-a]pyrazin-2-yl)methyl)-piperazin-1-yl)ethanone]: 451 nM.
Regarding `OCc1cn2cc(-c3cccc(O)c3)nc(N3CCOCC3)c2n1` [2-04, 3-(2-(hydroxymethyl)-8-morpholinoimidazo[1,2-a]pyrazin-6-yl)phenol], the IC50 was found to be 639 nM.
Same read-out and setting: the same measure for `Cc1cn2cc(-c3ccncc3)nc(N3CCOCC3)c2n1` [2-31, 2-methyl-8-morpholino-6-(pyridin-4-yl)imidazo[1,2-a]pyrazine]: 10000 nM.

Staying with this assay, now noted: semi-quantitative results; read-out: PI3Kα IC50 (semi-quantitative class).
In the case of `COc1cncc(-c2cn3cc(C)nc3c(N3CCOCC3)n2)c1` [2-27, 6-(5-methoxypyridin-3-yl)-2-methyl-8-morpholinoimidazo[1,2-a]pyrazine], the half-inhibitory concentration (IC50) was above 1000 nM.
Same read-out and setting: for `N#Cc1cn2cc(-c3cccc4[nH]ncc34)nc(N3CCOCC3)c2n1` [2-22, 6-(1H-indazol-4-yl)-8-morpholinoimidazo[1,2-a]pyrazine-2-carbonitrile] the value was 100 to 1000 nM.
Same read-out and setting: the same measure for `Cc1cn2cc(-c3cncc(O)c3)nc(N3CCOCC3)c2n1` [2-30, 5-(2-methyl-8-morpholinoimidazo[1,2-a]pyrazin-6-yl)pyridin-3-ol]: 100 to 1000 nM; for `Cc1cn2cc(-c3cccc4[nH]ncc34)nc(N3CCOCC3)c2n1` [2-24, 6-(1H-indazol-4-yl)-2-methyl-8-morpholinoimidazo[1,2-a]pyrazine]: above 1000 nM.
Still for that read-out and setting: for `Cc1cn2c(Cl)c(-c3cccc4[nH]ncc34)nc(N3CCOCC3)c2n1` [2-54, 5-chloro-6-(1H-indazol-4-yl)-2-methyl-8-morpholinoimidazo[1,2-a]pyrazine] the value was 100 to 1000 nM; for `Cc1nc2c(N3CCOCC3)nc(-c3cccc4[nH]ncc34)cn2c1C1CCNCC1` [2-57, 6-(1H-indazol-4-yl)-2-methyl-8-morpholino-3-(piperidin-4-yl)imidazo[1,2-a]-pyrazine], 100 to 1000 nM.
For `CN1CCN(C(=O)c2cn3cc(-c4cccc5[nH]ncc45)nc(N4CCOCC4)c3n2)CC1` [2-15, (6-(1H-indazol-4-yl)-8-morpholinoimidazo[1,2-a]pyrazin-2-yl)(4-methylpiperazin-1-yl)methanone], the IC50 fell in the range of 100 to 1000 nM.
Still for that read-out and setting: the same measure for `CS(=O)(=O)N1CCN(Cc2cn3c(Cl)c(-c4cccc5[nH]ncc45)nc(N4CCOCC4)c3n2)CC1` [2-60, 5-chloro-6-(1H-indazol-4-yl)-8-morpholino-2-((4-sulfonylmethylpiperazin-1-yl)-methyl)imidazo[1,2-a]pyrazine]: 100 to 1000 nM.
On to `Oc1cccc(-c2cn3c(N4CCNCC4)cnc3c(N3CCOCC3)n2)c1` [2-40, 3-(8-morpholino-3-(piperazin-1-yl)imidazo[1,2-a]pyrazin-6-yl)phenol], for which the IC50 was in the range of 100 to 1000 nM.
As for `Oc1cccc(-c2cn3cc(CN4CCOCC4)nc3c(N3CCOCC3)n2)c1` [2-09, 3-(8-morpholino-2-(morpholinomethyl)imidazo[1,2-a]pyrazin-6-yl)phenol], the IC50 is 100 to 1000 nM.
Still for that read-out and setting: for `CN1CCN(c2cnc3c(N4CCOCC4)nc(-c4cccc(O)c4)cn23)CC1` [2-37, 3-(3-(4-methylpiperazin-1-yl)-8-morpholinoimidazo[1,2-a]pyrazin-6-yl)phenol] the value was 100 to 1000 nM; for `CN1CCN(c2cnc3c(N4CCOCC4)nc(-c4cccc5[nH]ncc45)cn23)CC1` [2-38, 6-(1H-indazol-4-yl)-3-(4-methylpiperazin-1-yl)-8-morpholinoimidazo[1,2-a]-pyrazine], 100 to 1000 nM; for `CC(=O)N1CCN(Cc2cn3cc(-c4cccc(O)c4)nc(N4CCOCC4)c3n2)CC1` [2-06, 1-(4-((6-(3-hydroxyphenyl)-8-morpholinoimidazo[1,2-a]pyrazin-2-yl)methyl)-piperazin-1-yl)ethanone], 100 to 1000 nM.
Take `OCc1cn2cc(-c3cccc(O)c3)nc(N3CCOCC3)c2n1` [2-04, 3-(2-(hydroxymethyl)-8-morpholinoimidazo[1,2-a]pyrazin-6-yl)phenol]: the IC50 was 100 to 1000 nM.
Take `Cc1nc2c(N3CCOCC3)nc(-c3cccc4[nH]ncc34)cn2c1C(=O)NC1CCNCC1` [2-64, 6-(1H-indazol-4-yl)-2-methyl-8-morpholino-N-(piperidin-4-yl)imidazo[1,2-a]-pyrazine-3-carboxamide]: the half-inhibitory concentration (IC50) is above 1000 nM.
